Measurements taken from publication PMC5831858, “Pharmacological characterisation of CR6086, a potent prostaglandin E2 receptor 4 antagonist, as a new potential disease-modifying anti-rheumatic drug” (Arthritis Research & Therapy, 2018).
Marks after values point to notes of the source that are not given here.

Assays:
[1] = test system: arthritic mice (collagen-induced arthritis model); test: FACS analysis of cell populations in the joint, CIA mice; type: in vivo, mouse; details: CR6086 60 mg/kg, naproxen 60 mg/kg, etanercept 10 mg/kg, mean ± SEM
Description: (§1) In a first study, mice were randomised into the following treatment groups: vehicle, 30 mg/kg CR6086, 60 mg/kg CR6086, 60 mg/kg naproxen and 10 mg/kg etanercept. Animals received the test drugs for 10 days. CR6086 and naproxen were administered orally once daily, whereas etanercept was administered intraperitoneally every other day. Animals treated with vehicle, 60 mg/kg CR6086, naproxen and etanercept were additionally analysed for the proportion of populations of Th17 cells, Th1 cells, regulatory T cells, B cells, macrophages, neutrophils and dendritic cells by fluorescence-activated cell sorting (FACS) after collection of blood, draining lymph nodes and joints.

[2] = test system: arthritic mice (collagen-induced arthritis model); test: CIA in mice, first study: clinical score and paw swelling; type: in vivo, mouse; details: 10 days; CR6086 30 and 60 mg/kg, naproxen 60 mg/kg oral once daily; etanercept 10 mg/kg i.p. every other day
Description: Male DBA/1 mice were immunised by intradermal injection at the base of the tail with an emulsion of 200 μg of bCII in CFA containing 3 mg/ml Mycobacterium tuberculosis. Non-immunised mice served as the negative control of disease. Animals were monitored by visual inspection for appearance of peripheral oedema. […] Upon onset, animals were recruited and randomised. Recruitment was given a cut-off at day 40. Upon recruitment, arthritis clinical score was assigned, and oedema was measured via caliper.
as §1
Oedema measurement was performed every day before treatment, and all animals were blindly scored for clinical signs of arthritis as follows: 0 = normal; 1 = slight swelling and/or erythema; 2 = pronounced oedematous swelling; and 3 = ankyloses and severe swelling. A score of 0.5 was given to swollen toe/toes or when inflammation was localised to one part of the foot. Each limb was measured separately, with a final score based on the sum of the scores from all four paws.

[3] = test system: arthritic mice (collagen-induced arthritis model); test: CIA in mice, third study (CR6086, MTX, combination): clinical score, oedema, histology; type: in vivo, mouse; details: for CLINICAL SCORE (interquartile range): median (IQR)
[4] = test system: arthritic mice (collagen-induced arthritis model); test: Serum anti-bCII IgG antibodies (ELISA), CIA mice third study; type: in vivo, mouse; details: end of treatment
Description: In a third study, mice were randomised into the following treatment groups: naive, vehicle, 30 mg/kg CR6086, 1 or 3 mg/kg MTX, with the latter administered alone or in combination with 30 mg/kg CR6086. CR6086 was administered orally once daily. MTX was administered intraperitoneally three times per week (every third day). Mice were treated with test drugs for 16 days.
At the end of the treatment period, animals were killed, and their paws were explanted and processed for histology. In the third study, the serum concentrations of immunoglobulin G (IgG) antibodies against bCII were measured by ELISA (catalogue number 2032; Chondrex, Redmond, WA, USA).

[5] = test system: arthritic rats (collagen-induced arthritis model); test: Mechanical hyperalgesia (PAM) in CIA rats; type: in vivo, rat; details: 15 mg/kg, mean ± SEM
Description: (§2) Male Lewis rats were immunised by intradermal injection at the base of the tail with an emulsion containing 150 μg of bovine collagen type II (bCII) in complete Freund’s adjuvant (CFA) or received an injection with incomplete Freund’s adjuvant (sham group). Three weeks after the first immunisation, animals were boosted with the same procedure. Three days after booster injection, arthritis had developed in all animals but the sham group. Oedema was assessed via plethysmometer (Ugo Basile, Varese, Italy), and the animals were then randomised to treatment groups. Oedema measurement was performed again after 7 and 14 days of treatment. Animals were blindly scored by two different investigators for clinical signs of arthritis (redness, swelling, pain of hind limb joints) as follows: 0 = normal; 1 = mild but definite redness and swelling of the ankle or wrist or individual digits, regardless of the number of affected digits; 2 = moderate redness and swelling of ankle or wrist; 3 = severe redness and swelling of the entire paw including digits; and 4 = maximally inflamed limb with involvement of multiple joints. The mean of the scores assigned by the investigators was calculated.
In the comparative experiment vs rofecoxib, mechanical hyperalgesia was assessed at the end of treatment by using a digital pressure application measurement (PAM) device (Ugo Basile). Increasing pressure was applied to the lateral side of the knee until the animal attempted to escape or vocalised. The force required to elicit this response was measured in grams (gram-force). An optimal stimulus increase rate of 100 g/second was used, and mechanical thresholds were reached after approximately 10 seconds. This increase was visualised with a rate meter on the built-in display, so the pressure applied was visually controlled. At the end of the experiment, animals were killed, and their hind paws were explanted and processed for histology.

[6] = test system: arthritic rats (collagen-induced arthritis model); test: Collagen-induced arthritis in rats: clinical score, oedema, histology; type: in vivo, rat; details: 15 mg/kg once daily
Description: as §2
Three different experiments in rat CIA are reported: a dose-response study, as well as two comparative studies vs the COX-2 inhibitor rofecoxib and the Janus kinase (JAK) inhibitor tofacitinib, respectively.
Briefly, the paws were fixed in 10% neutral buffered formalin (Bio-Optica, Milan, Italy) and subsequently decalcified in EDTA for 4 weeks. Samples were dehydrated in an ethanol series and embedded in paraffin. At least three non-consecutive sections for each paw were blindly scored at the level of the tarsus, metatarsus and calcaneus for the following histological features: synovial oedema, pannus, synovial inflammatory cell infiltrate, cartilage damage, osteolysis and woven bone. Based on these histological features, a synovial score (synovial oedema, plus synovial inflammatory cell infiltrate, plus pannus), a bone score (woven bone plus osteolysis) and a total score were calculated. Two independent pathologists performed histopathology on blinded slides. The data of right and left hind limbs were summed for each rat.

## etanercept
[1]
  B cells, Percentage of total cells: 5.74 ± 0.68%
  Dendritic cells, Percentage of total cells: 1.51 ± 0.18%
  Macrophages, Percentage of total cells: 12.31 ± 5.19%
  Neutrophils, Percentage of total cells: 10.53 ± 2.81%
  Th1, Percentage of total cells: 0.20 ± 0.05^a %
  Th17, Percentage of total cells: 0.16 ± 0.08%
  Treg, Percentage of total cells: 0.39 ± 0.10%
[2]
  effect on disease parameters (visual clinical score, paw swelling) vs vehicle: significantly improved

## CN(Cc1cnc2nc(N)nc(N)c2n1)c1ccc(C(=O)N[C@@H](CCC(=O)O)C(=O)O)cc1 [MTX, methotrexate]
[3]; 16 days, 30 mg/kg CR6086, 3 mg/kg MTX, alone or combined
  effect on joint histopathology: significantly improved all histological features of arthritis
[3]; DAY 0, 1 mg/kg MTX
  CLINICAL SCORE (interquartile range): 3.0 (2.4 – 3.3) *
[3]; DAY 0, 3 mg/kg MTX
  CLINICAL SCORE (interquartile range): 2.0 (2.0 – 2.0) *
[3]; DAY 1, 1 mg/kg MTX
  CLINICAL SCORE (interquartile range): 2.8 (2.0 – 3.0)
[3]; DAY 1, 3 mg/kg MTX
  CLINICAL SCORE (interquartile range): 2.3 (2.0 – 3.0)
[3]; DAY 2, 1 mg/kg MTX
  CLINICAL SCORE (interquartile range): 3.0 (3.0 – 4.0)
[3]; DAY 2, 3 mg/kg MTX
  CLINICAL SCORE (interquartile range): 3.0 (2.1 – 3.8)
[3]; DAY 3, 1 mg/kg MTX
  CLINICAL SCORE (interquartile range): 4.0 (3.0 – 4.8)
[3]; DAY 3, 3 mg/kg MTX
  CLINICAL SCORE (interquartile range): 3.0 (2.3 – 6.0)
[3]; DAY 4, 1 mg/kg MTX
  CLINICAL SCORE (interquartile range): 3.5 (3.0 – 5.5)
[3]; DAY 4, 3 mg/kg MTX
  CLINICAL SCORE (interquartile range): 4.0 (2.0 – 5.5)
[3]; DAY 5, 1 mg/kg MTX
  CLINICAL SCORE (interquartile range): 5.0 (3.4 – 6.3)
[3]; DAY 5, 3 mg/kg MTX
  CLINICAL SCORE (interquartile range): 3.5 (2.4 – 4.8)
[3]; DAY 6, 1 mg/kg MTX
  CLINICAL SCORE (interquartile range): 4.8 (3.3 – 8.1)
[3]; DAY 6, 3 mg/kg MTX
  CLINICAL SCORE (interquartile range): 4.0 (2.0 – 5.5)
[3]; DAY 7, 1 mg/kg MTX
  CLINICAL SCORE (interquartile range): 4.5 (2.8 – 7.5)
[3]; DAY 7, 3 mg/kg MTX
  CLINICAL SCORE (interquartile range): 4.5 (2.6 – 6.0)
[3]; DAY 8, 1 mg/kg MTX
  CLINICAL SCORE (interquartile range): 5.5 (3.8 – 7.6)
[3]; DAY 8, 3 mg/kg MTX
  CLINICAL SCORE (interquartile range): 4.3 (2.4 – 6.4)
[3]; DAY 9, 1 mg/kg MTX
  CLINICAL SCORE (interquartile range): 5.0 (3.3 – 7.0)
[3]; DAY 9, 3 mg/kg MTX
  CLINICAL SCORE (interquartile range): 4.5 (3.0 – 5.0)
[3]; DAY 10, 1 mg/kg MTX
  CLINICAL SCORE (interquartile range): 6.5 (3.0 – 7.3)
[3]; DAY 10, 3 mg/kg MTX
  CLINICAL SCORE (interquartile range): 5.0 (2.5 – 5.5)
[3]; DAY 11, 1 mg/kg MTX
  CLINICAL SCORE (interquartile range): 7.3 (4.4 – 7.5)
[3]; DAY 11, 3 mg/kg MTX
  CLINICAL SCORE (interquartile range): 5.0 (2.5 – 6.0)
[3]; DAY 12, 1 mg/kg MTX
  CLINICAL SCORE (interquartile range): 6.8 (5.3 – 7.5)
[3]; DAY 12, 3 mg/kg MTX
  CLINICAL SCORE (interquartile range): 5.5 (2.0 – 7.5)
[3]; DAY 13, 1 mg/kg MTX
  CLINICAL SCORE (interquartile range): 6.3 (4.5 – 7.0)
[3]; DAY 13, 3 mg/kg MTX
  CLINICAL SCORE (interquartile range): 6.0 (2.0 – 7.0)
[3]; DAY 14, 1 mg/kg MTX
  CLINICAL SCORE (interquartile range): 7.3 (5.0 – 7.6)
[3]; DAY 14, 3 mg/kg MTX
  CLINICAL SCORE (interquartile range): 4.5 (2.0 – 6.0)
[3]; DAY 15, 1 mg/kg MTX
  CLINICAL SCORE (interquartile range): 6.5 (5.0 – 7.5)
[3]; DAY 15, 3 mg/kg MTX
  CLINICAL SCORE (interquartile range): 4.5 (3.1 – 7.0)
[3]; DAY 16, 1 mg/kg MTX
  CLINICAL SCORE (interquartile range): 6.5 (5.5 – 8.3)
[3]; DAY 16, 3 mg/kg MTX
  CLINICAL SCORE (interquartile range): 4.5 (2.3 – 5.4)
[4]; 1 mg/kg MTX
  Anti-collagen II: 483.83 ± 102.82 µg/mL
[4]; 3 mg/kg MTX
  Anti-collagen II: 242.46 ± 79.35 µg/mL

## CS(=O)(=O)c1ccc(C2=C(c3ccccc3)C(=O)OC2)cc1 [rofecoxib, reference compound]
[5]; Day 0
  Mechanical hyperalgesia, Day 0: 943.70 ± 73.42^a gram-force
[5]; Day 7
  Mechanical hyperalgesia, Day 7: 673.18 ± 53.76^b gram-force
[5]; Day 14
  Mechanical hyperalgesia, Day 14: 799.68 ± 61.15^b,c gram-force
[6]
  effect on clinical score: small effect
[6]; 14 days
  effect on structural and inflammatory parameters (oedema, histology): improved to a slight but significant extent the inflammatory parameters (not the structural ones)
